Entries after “also recorded” stand apart in the source; their conditions may differ.
What was measured:
[1] = tested on: vitamin D-deficient chick; assay: Intestinal Ca2+ absorption (ICA) in vitamin D-deficient chick; format: in vivo; conditions: i.m.
Protocol: A primary fundamental physiological property of vitamin D and particularly 1α,25(OH)2 D3 is its ability to stimulate the intestinal absorption of calcium and facilitate the availability of dietary calcium to the organism. Intestinal absorption of the calcium is measured by the intestinal calcium absorption (ICA) assay, developed in the model of vitamin-D deficient chicks. The ICA assay was used to determine the relative capability of the tested analog to stimulate intestinal Ca^2+ absorption.
(§1) Results of the testing of the analogs of the invention in vivo by the ICA and IBM assays are shown in FIG. 9 which illustrates the capability of analogs LO, EV and HR to stimulate intestinal Ca^2+ absorption (ICA) and bone Ca^2+ mobilizing activity (BCM). In this study, the analogs of 1α,25(OH) were given i.m. to vitamin D-deficient chicks 12 hours before the assay began. The activity produced by 100 pmol of 1α,25(OH)2 D3 was set to be 100% for both ICA and BCM. The dose of the analogs required to achieve a biological response for either ICA or BCM equivalent to the 100 pmol dose of 1α,25(OH)2 D3 was calculated and converted to a percentage. Results are expressed as mean +SE of groups of seven chicks. Each assay included a negative control (-D), that is no vitamin D was present, and a positive control, where vitamin D3 (+D3) was present in 3.25 nmol. […] 1α,25(OH)2 D3 and analogs LO [14α,15α-methano-1α,25(OH)2 D3 ], EV [22-(m(dimethylhydroxymethyl)phenyl)-23,24,25,26,27-pentanor-1α-OH-D3 ] and HR [(22R)-1,25(OH)2 -22,23-diene-D3 ] were administered in 0.0065, 0.065, 0.65 and 6.5 nmol as shown.
(§2) In Vivo Assays of Intestinal Calcium Absorption and Bone Calcium Mobilization
(§3) This example describes assays used for determination of analogs biological activity in intestinal calcium absorption (ICA) and bone calcium mobilization (BCM) assays.
(§4) ICA and BCM were measured in vivo in the vitamin D-deficient chick model system according to Biochem. Pharmacol., 18: 2347 (1969).
(§5) Twelve hours before assay, the chickens, which had been placed on a zero-calcium diet 48 h before assay, were injected intramuscularly with the vitamin metabolite 1α,25(OH)2 D3 or analog (1-10,000 pmoles) dissolved in 0.1 mL of ethanol/1,2-propanediol (1:1, v/v). At the time of assay, 4.0 mg of ^40 Ca^2+ +5 μCi of ^45 Ca^2+ (New England Nuclear) were placed in the duodenum of the birds lightly anesthetized with ether. After 30 min, the birds were decapitated and the blood was collected.
The radioactivity content, which is a measure of ICA, of 0.2 mL of serum was measured in a liquid scintillation counter (Beckman LS8000) to determine the amount of ^45 Ca^2+ absorbed.

[2] = tested on: chloride channels in ROS 17/2.8 cells
Protocol: In each case, at least a 3-min period was allowed after the addition of the analog to the bath for currents to reach a stable amplitude value. […] Anion currents were isolated from inward Ba^2+ currents after blockade of Ca^2+ channels with 100 μM Cd^2+.

[3] = tested on: MAP-kinase p42^mapk in NB4 cells; assay: MAP-kinase activation (p42mapk phosphorylation) in NB4 cells; format: cell-based, human; conditions: 1 or 5 minutes exposure
Protocol: In order to determine whether MAP-kinase phosphorylation is specific and is altered by 1α,25(OH)2 D3, the time-dependent effects of 1α,25(OH)2 D3 on p42^mapk phosphorylation was examined using human acute promyelocytic leukemia cells (NB4). In this study, the NB4 cells, cultured in 10% charcoal-stripped fetal calf serum (FCS) medium, were treated with 1α,25(OH)2 D3 at 10^-8 M for various time periods. Cells were then extracted and the phosphorylated MAP-kinase was immunoprecipitated with anti-phosphotyrosine antibody and further analyzed by Western blot using the antibodies against p42^mapk.
The lysate was further processed for anti-phosphotyrosine immunoprecipitation. […] After transferring the proteins to the PVDF membrane, the membrane was further incubated with primary anti-p42^mapk antibodies that were (+) or were not (-) pre-exposed to MAP-kinase peptide.
This example describes assays used for measurement of MAP-kinase activity in NB4 cells.
Cell culture of NB4 cells
The cell line is characterized by a translocation involving chromosomes 15 and 17, which is typical of the classical form of APL-M3 in the French-American-British [FAB] classification. NB4 cells were cultured in DMEM/F12 medium with 10% FCS at 5% CO2 balanced air and were routinely passaged as suspension cultures and only passages 8 to 20 were used for each assay.
Immunoprecipitation of Tyrosine-Phosphorylated Proteins
NB4 cells were cultured in 60-mm diameter dishes and treated with 1,25(OH)2 D3 or analogs in 4 ml of DMEM/F12 containing 10% charcoal-stripped FCS.
Insoluble material was removed in a microcentrifuge at 14,000 rpm for 10 min. Protein concentration was determined with a protein assay kit (Bio-Rad Lab, Hercules, Calif.). For immunoprecipitation, the supernatant was incubated with bead-conjugated monoclonal anti-phosphotyrosine antibody overnight at 4° C. The immunoprecipitates containing the tyrosine-phosphorylated proteins were washed four times with freshly-prepared RIPA buffer and further eluted with 2× Laemmli gel buffer.
At this point, the samples were either stored at -20° C. for further use or processed via Western blots. Equal loading of MAP-kinase protein was determined by running the Western blots using polyclonal anti-p42^mapk antibody. For this purpose, samples were aliquoted from each cell extract before immunoprecipitation.
SDS Gel Electrophoresis and Western blot
The membrane was further immunoblotted using a rabbit anti-p42^mapk polyclonal antibody overnight at 4° C. followed by incubation with secondary horseradish peroxidase-conjugated mouse anti-rabbit antibody for 1 hr at 25° C. The phosphorylated MAP-kinase bands were then visualized by enhanced chemiluminescence (ECL). A Ultrascan LX Laser Densitometer (LKB, Bromma, Sweden) scanned the density of the immuno-phosphoprotein bands. The results were normalized by protein loading and further plotted as percent of control of the band density.

VDRmem = assay: Rapid response (summary classification); conditions: Yes/No, Tables 1 and 6
Description: (§6) Table 6 identifies biological properties, such as genomic response, rapid response, agonist or antagonist function, binding of the analog to the vitamin binding protein (expressed as RCI), binding to the nuclear 1α,25(OH)2 D3 receptor (expressed as RCI) rapid response (expressed as % transcaltachia the rapid hormonal stimulation of intestinal calcium absorption) the classic vitamin D responses such as intestinal Ca^2+ absorption (ICA) and bone Ca^2+ mobilizing activity (BCM) determined in vivo in a vitamin D-deficient chick, and cell differentiation (expressed as % ED50), an assessment of the ability to promote the nuclear response of cell differentiation.

VDRnuc = assay: Genomic response (summary classification); conditions: Yes/No, Tables 1 and 6
Description: as §6

rapid responses (VDRmem) = assay: Antagonist function (summary classification); conditions: Yes/No, Tables 1 and 6
Description: as §6

[4] = tested on: vitamin D-deficient chick; assay: Bone Ca2+ mobilizing activity (BCM) in vitamin D-deficient chick; format: in vivo; conditions: i.m.
Protocol: The bone calcium mobilizing (BCM) assay is also conducted in the vitamin D-deficient chick. The BCM assay determines the relative ability of the tested analog to mobilize bone calcium. The natural hormone 1α,25(OH)2 D3 is very potent in the BCM assay. For example, when 1α,25(OH)2 D3 in inappropriate amounts are used as a drug in human patients, the patient may become hypercalcemic and eventually hypercalciuria with nephrolithiasis and renal failure may develop. The BCM assay was used to determine the relative activity of the analogs of the invention to stimulate bone Ca^2+ mobilization.
as §1, §2, §3, §4, §5
BCM activity was estimated from the increase of total serum calcium concentration, as determined by atomic absorption spectrophotometry.

keratinocytes = conditions: cell cultures of keratinocytes; cited from earlier work
[5] = relative to 100 pmol 1α,25(OH)2 D3 = 100%, 12 h before assay

In the case of `C=C1/C(=C\C=C2/CCC[C@]3(C)[C@@H]([C@H](C)CCCC(C)(C)O)CC[C@@H]23)C[C@@H](O)C[C@@H]1O` [Analog C, 1α,25-dihydroxyvitamin D3, reference compound], the “Classic Vit D Responses ICA” value [1, 5] was 100%, the “ICA (in words)” value ([1]; vitamin D-deficient chick) was “most potent stimulator of ICA and BCM” and the “opening of chloride channels (in words)” value ([2]; 0.05-50 nM, alone, listed as 1α,25(OH)2 D3) was “concentration-dependent effect on the promotion of anion currents; also recorded: agonist which opens chloride channels”. For the same compound, the “cells responding with promotion of anion currents” value ([2]; 1α,25(OH)2 D3 alone, 14 out of 15 cells) was 93%, the “phosphorylation / activation of MAP-kinase p42mapk (in words)” value [3] was “significantly increased phosphorylation of p42^mapk in NB4 cells” and the “Rapid Response” value (VDRmem) was “Yes”. The “Genomic Response” value (VDRnuc) was “Yes”, the Antagonist (rapid responses (VDRmem)) was “No” and the “Classic Vit D Responses BCM” value [4, 5] was 100%. The “BCM (in words)” value ([4]; vitamin D-deficient chick) was “most potent stimulator of ICA and BCM” and the “production of keratin, involucrin and loricrin” value (keratinocytes) was “stimulate the production of keratin, involucrin and loricrin”.
